The text below walks through data of patent US10544131B2, “MCL-1 antagonists” (The Regents of the University of California, priority 2014, dated 2020).

The test system of one data set is Mcl-1/Bak PPI. The data set is described as follows: liposome functional assay for Mcl-1/Bak (calcein release, MOMP model). It counts as biochemical. The settings on record: in words. The source says: The Shore lab has developed a functional assay utilizing recombinant proteins anchored in artificial liposomes that enables the evaluation of small-molecules to disrupt the Mcl-1/Bak PPI (FIG. 2A). In this assay, full-length functional single cysteine mutants of Mcl-1 and Bak were anchored into lipids (with PE's) utilizing the engineered cysteine residues as a handle. This allows Applicants to recapitulate Bak-mediated mitochondrial permeabilization and measure the various protein-protein and protein-membrane interactions involved in Mcl-1 regulation of Bak. The release of calcenin (Cn) dye encapsulated in the liposome was used to quantify membrane permeabilization. When the system is untreated, Mcl-1 sequesters Bak by engaging its BH3 domain. Incubation with an active inhibitor neutralizes Mcl-1. This triggers Bak auto-oligomerization resulting in the formation of pores in the lipid membrane and release of Cn. By measuring […] from Cn, Applicants can quantify antagonism of Mcl-1 in real time.
(§1) Synthetic 3, along with numerous intermediates and their derivatives were assayed in a model system for mitochondrial outer membrane permeabilization (MOMP). This liposome based experiment recapitulates a signaling axis involving pro-apoptotic Bak, anti-apoptotic Mcl-1, and an active, truncated 15 kDa subunit of the pro-death protein Bid (tBid).^11 Bak and Mcl-1 are transmembrane proteins constitutively anchored in the mitochondrial outer membrane. tBid translocates to mitochondria upon cleavage of Bid by caspase-8 and stimulates MOMP by directly activating free Bak and by disengaging any activated Bak from Mcl-1. Applicants' assay mimics these events using recombinant, lipidated Mcl-1 and Bak that are constitutively bound to unilamellar liposomes encapsulating calcein dye. tBid addition initiates Bak homo oligomerization and pore formations, which in turn results in calcein release and a fluorescence signal. Mcl-1 counters this tBid dependent activation of Bak, which is overcome by small molecule Mcl-1 antagonists (FIG. 6).

In a further data set the test system is Bak. Description: liposome assay with Bak-loaded proteoliposomes lacking Mcl-1. The settings on record: Bak loaded proteoliposomes without Mcl-1. The data set is classed as biochemical. How it is done:
as §1
(§2) Recombinant Mcl-1 was expressed and purified from E. coli.
(§3) Moreover, when Mcl-1 was replaced with Bcl-xL in the assay, 12 also had no effect (FIG. 10). […] Toxic thrombocytopenia caused by ABT-737 in vivo has been correlated with Bcl-xL inhibition.^25

A further data set concerns the target Bcl-xL (Homo sapiens, UniProt Q07817). The data set is described as follows: liposome assay with Bcl-xL in place of Mcl-1. The data set is classed as biochemical.
From the text: as §3

The next data set addresses T1, recombinant Mcl-1 (Homo sapiens, UniProt Q07820).
T1 construct: made in house; host or cells: E. coli
The data set is described as follows: isothermal titration microcalorimetry (ITC) with purified recombinant Mcl-1. It counts as binding. The settings on record: for binding / affinity for Mcl-1 measurable by ITC: purified recombinant Mcl-1, in words. A general note: In ITC the heat of successive injections is recorded.

In another data set the test system is truncated Bid. The data set is described as follows: binding to truncated Bid. The settings on record: data not shown.
From the text: as §2

In the next data set the test system is human KMS-11 cells. Description: cytotoxicity in cell culture, KMS-11. The settings on record: 1.0 μM concentration. It counts as cell-based.
Data set [1] has as its system human KMS-11 myeloid leukemia cells. The data set is described as follows: cytotoxicity in cell culture, KMS-11. It counts as cell-based. As to conditions: KMS-11 cells, single dose, in words.
In data set [2] the test system is Ep-myc (myr) Akt lymphoma cells. The data set is described as follows: mouse lymphoma model with and without doxorubicin, tumor-free survival. The data set is classed as in vivo, C57BL/6 mice. As for the experimental part: C57BL/6 mice were tail-vein injected with Ep-myc (myr) Akt lymphoma cells and palpable tumors (multiple sites per animal) allowed to develop. Animals were randomized for tumor burden and treated by intraperitoneal (IP) injection with vehicle, or vehicle containing obatoclax (10 mg/kg) or JHF3056 (40 mg/kg) daily×5. In addition, animals received a single injection of doxorubicin (IP, 10 mg/kg) on day 2 of the injection regimen, either alone or in combination with the obatoclax (9) or JHF3056 (10) regimen. Animals were allowed to become tumor-free (no observable palpable tumors) and then tumor-free survival was measured (time to re-appearance of tumors).

The nature of data set [3]: in vivo toxicity (minimum toxic dose).
Data set [4] in a line: stability of the neat substance. The data set is classed as physicochemical. The settings on record: in words.

“Also recorded” adds a separate entry of the source.

T1 sequence (Q07820 whole entry): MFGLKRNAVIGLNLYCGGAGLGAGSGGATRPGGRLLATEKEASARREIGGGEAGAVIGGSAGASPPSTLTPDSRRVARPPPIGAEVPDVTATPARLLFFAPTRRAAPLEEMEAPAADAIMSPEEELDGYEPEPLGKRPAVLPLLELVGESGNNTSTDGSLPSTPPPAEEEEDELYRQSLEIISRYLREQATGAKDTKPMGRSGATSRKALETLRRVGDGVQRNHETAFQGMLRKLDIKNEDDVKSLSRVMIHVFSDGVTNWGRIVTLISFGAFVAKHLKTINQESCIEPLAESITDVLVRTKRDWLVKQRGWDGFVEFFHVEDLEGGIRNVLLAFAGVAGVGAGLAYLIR
Bcl-xL, sequence (Q07817 whole entry, species assumed): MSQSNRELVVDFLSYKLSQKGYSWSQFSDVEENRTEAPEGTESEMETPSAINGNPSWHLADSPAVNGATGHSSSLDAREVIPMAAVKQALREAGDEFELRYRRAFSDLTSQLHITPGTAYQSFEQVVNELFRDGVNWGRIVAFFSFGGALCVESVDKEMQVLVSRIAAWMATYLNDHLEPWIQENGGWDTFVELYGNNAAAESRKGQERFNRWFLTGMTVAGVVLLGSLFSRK

The Kd is the concentration at which binding is half-saturated. Turning to `COc1cc(-c2c(Cl)ccn2S(=O)(=O)c2ccc(C)cc2)oc1-c1nnn[nH]1` [Compound 12], the “antagonism of Mcl-1 / Bak-mediated permeabilization of liposomal membranes” value in the data set with Mcl-1/Bak PPI is “stimulate Bak-mediated permeabilization of liposomal membranes; also recorded: successfully drove pore formations; also recorded: exceeded that of 5 and obatoclax”. For the same compound, in the data set on Bak, the “calcein release from liposomes lacking Mcl-1” value was “did not release calcein dye”. In addition, at Bcl-xL, the “MOMP-like pore formation in liposomes containing Bcl-xL” value is reported as “no effect; also recorded: did not stimulate MOMP-like pore formations”. For the same compound, on recombinant Mcl-1 (purified recombinant Mcl-1), the Kd came out at 700 ± 120 nM. In addition, the “binding / affinity for Mcl-1 measurable by ITC” value at recombinant Mcl-1 was “strong, saturable binding”.
Take `COc1cc(-c2c(Cl)ccn2S(=O)(=O)c2ccc(C)cc2)oc1C(C)=O` [JHF3056, 1-(5-(3-chloro-1-tosyl-1H-pyrrol-2-yl)-3-methoxyfuran-2-yl)ethan-1-one]: the “antagonism of Mcl-1 / Bak-mediated permeabilization of liposomal membranes” value with Mcl-1/Bak PPI is “capacity to antagonize the Mcl-1/Bak PPI; also recorded: directly antagonizes Mcl-1; also recorded: superior performance of JHF3056 (10) relative to 8 and 9”; in the data set with Mcl-1/Bak PPI (listed as 5), “counter Mcl-1 activity and promote Bak-mediated permeabilization of liposomal membranes; also recorded: near equipotent to 4”; in the data set with Mcl-1/Bak PPI (listed as 10) it was “promising activity”. Also, the “calcein release from liposomes lacking Mcl-1” value with Bak is given as “did not induce release of calcein”. Moreover, the “binding / affinity for Mcl-1 measurable by ITC” value at recombinant Mcl-1 (listed as 5) is “Neither 2 nor 5 demonstrated measurable affinity”. In addition, the “binding to truncated Bid” value in the data set with truncated Bid is “no binding”. Also, the “cytotoxic activity relative to obatoclax” value with human KMS-11 cells is “enhanced activity relative to obatoclax (9)”. Besides, the cytotoxicity entry is on record as “cytotoxic at micromolar concentrations; also recorded: sub-micromolar cytotoxicity” in data set [1] and “sub-micromolar single dose cytotoxicity” in [1] (listed as 10). Also, the “anti-tumor activity in combination with doxorubicin” value is recorded as “sensitizes lymphoma tumor xenografts to doxorubicin” in [2] (JHF3056 40 mg/kg IP daily×5, doxorubicin 10 mg/kg IP day 2) and “clear anti-tumor activity in combination with the chemotherapeutic doxorubicin” in data set [2] (JHF3056 40 mg/kg IP daily×5, doxorubicin 10 mg/kg IP day 2, listed as 10). For the same compound, the minimum toxic dose in data set [3] (in vivo) amounted to 80 mg/kg. In data set [3] (in words), the “toxicity at pharmacologically relevant doses” value is recorded as “nontoxic at pharmacologically relevant doses”. For the same compound, the results for the stability entry in data set [4] and in data set [4] (listed as 5) were “stable solid” and “bench stable solid”, respectively.
Turning to `COc1cc(-c2[nH]ccc2Cl)oc1C1=C2N=C3C=C2[C@H](C(C)C)[C@H]1CCCCCCCC3` [roseophilin, reference compound], in the data set on Mcl-1/Bak PPI, the “antagonism of Mcl-1 / Bak-mediated permeabilization of liposomal membranes” value is “little activity”.
